Results as given in ChEMBL document CHEMBL3885881, “DrugMatrix”.

Species on record: Rattus norvegicus
Assay: DrugMatrix - Regimen: Daily Repeat
Format: toxicity, organism-based, Sprague-Dawley
Parameters: regimen Daily Repeat, gender Male, age 6-8 weeks
Conditions: in vivo, iv, vehicle 100 % SALINE; for ABSOLUTE BASOPHIL / ABSOLUTE EOSINOPHIL / ABSOLUTE LYMPHOCYTE / ABSOLUTE MONOCYTE / ABSOLUTE SEGMENTED NEUTROPHIL / BASOPHIL / EOSINOPHIL / ERYTHROCYTE COUNT / HEMATOCRIT / HEMOGLOBIN / LEUKOCYTE COUNT / LYMPHOCYTE / MEAN CORPUSCULAR HEMOGLOBIN / MEAN CORPUSCULAR HEMOGLOBIN CONCENTRATION / MEAN CORPUSCULAR VOLUME / MONOCYTE / NEUTROPHIL / NUCLEATED RED BLOOD CELLS / PLATELET COUNT: tissue Blood; for ALANINE AMINOTRANSFERASE / ALBUMIN / ALKALINE PHOSPHATASE / ASPARTATE AMINOTRANSFERASE / BLOOD UREA NITROGEN / CARBON DIOXIDE / CHLORIDE / CHOLESTEROL / CREATINE PHOSPHOKINASE / CREATININE / GLUCOSE / LACTATE DEHYDROGENASE / LIPASE / PHOSPHORUS / POTASSIUM / SODIUM / TOTAL BILIRUBIN / TOTAL PROTEIN / URIC ACID: tissue Plasma
[1] = 0 mg/kg, 72 h, dose level Control, time 3 day
[2] = 0 mg/kg, 120 h, dose level Control, time 5 day
[3] = 200 mg/kg, 72 h, dose level Low, time 3 day

`CC1(C)S[C@@H]2[C@H](NC(=O)[C@H](NC(=O)N3CCNC3=O)c3ccccc3)C(=O)N2[C@H]1C(=O)O` [AZLOCILLIN] was tested, and the “ABSOLUTE BASOPHIL” value [1] was 0 CELLS/uL, the “ABSOLUTE EOSINOPHIL” value [1] was 15.33 CELLS/uL and the “ABSOLUTE LYMPHOCYTE” value [1] was 9513.5 CELLS/uL. The “ABSOLUTE MONOCYTE” value [1] was 94.67 CELLS/uL, the “ABSOLUTE SEGMENTED NEUTROPHIL” value [1] was 709.83 CELLS/uL and the BASOPHIL [1] was 0%. For the same compound, the EOSINOPHIL [1] was 0.17%, the “ERYTHROCYTE COUNT” value [1] was 5.63 x10E6/uL and the HEMATOCRIT [1] was 34.63%. For the same compound, the HEMOGLOBIN [1] was 13.6 G/DL, the “LEUKOCYTE COUNT” value [1] was 10.33 x10E3/uL and the LYMPHOCYTE [1] was 92%. The “MEAN CORPUSCULAR HEMOGLOBIN” value [1] was 24.17 pg, the “MEAN CORPUSCULAR HEMOGLOBIN CONCENTRATION” value [1] was 39.28 G/DL and the “MEAN CORPUSCULAR VOLUME” value [1] was 61.57 fL. For the same compound, the MONOCYTE [1] was 0.83%, the NEUTROPHIL [1] was 7% and the “NUCLEATED RED BLOOD CELLS” value [1] was 0 /100WBC. The “PLATELET COUNT” value [1] was 903.17 x10E3/uL, the “ALANINE AMINOTRANSFERASE” value [1] was 49.33 u/L and the ALBUMIN [1] was 4.27 G/DL. The “ALKALINE PHOSPHATASE” value [1] was 400.83 u/L, the “ASPARTATE AMINOTRANSFERASE” value [1] was 77.5 u/L and the “BLOOD UREA NITROGEN” value [1] was 16.33 mg/dL. For the same compound, the “CARBON DIOXIDE” value [1] was 29.33 mmol/L, the CHLORIDE [1] was 99.67 MEQ/L and the CHOLESTEROL [1] was 66.67 mg/dL. The “CREATINE PHOSPHOKINASE” value [1] was 275.33 u/L, the CREATININE [1] was 0.18 mg/dL and the GLUCOSE [1] was 163.83 mg/dL. The “LACTATE DEHYDROGENASE” value [1] was 125.33 u/L, the LIPASE [1] was 10 u/L and the PHOSPHORUS [1] was 12.12 mg/dL. For the same compound, the POTASSIUM [1] was 6.68 MEQ/L, the SODIUM [1] was 144.02 MEQ/L and the “TOTAL BILIRUBIN” value [1] was 0.18 mg/dL. The “TOTAL PROTEIN” value [1] was 5.87 G/DL, the “URIC ACID” value [1] was 1.63 mg/dL and the “ABSOLUTE BASOPHIL” value [2] was 0 CELLS/uL. For the same compound, the “ABSOLUTE EOSINOPHIL” value [2] was 48.83 CELLS/uL, the “ABSOLUTE LYMPHOCYTE” value [2] was 14562 CELLS/uL and the “ABSOLUTE MONOCYTE” value [2] was 138.67 CELLS/uL. For the same compound, the “ABSOLUTE SEGMENTED NEUTROPHIL” value [2] was 1733.83 CELLS/uL, the BASOPHIL [2] was 0% and the EOSINOPHIL [2] was 0.33%. The “ERYTHROCYTE COUNT” value [2] was 5.89 x10E6/uL, the HEMATOCRIT [2] was 36.7% and the HEMOGLOBIN [2] was 14.42 G/DL. For the same compound, the “LEUKOCYTE COUNT” value [2] was 16.48 x10E3/uL, the LYMPHOCYTE [2] was 88.83% and the “MEAN CORPUSCULAR HEMOGLOBIN” value [2] was 24.52 pg. For the same compound, the “MEAN CORPUSCULAR HEMOGLOBIN CONCENTRATION” value [2] was 39.3 G/DL, the “MEAN CORPUSCULAR VOLUME” value [2] was 62.37 fL and the MONOCYTE [2] was 0.67%. For the same compound, the NEUTROPHIL [2] was 10.17%, the “NUCLEATED RED BLOOD CELLS” value [2] was 0 /100WBC and the “PLATELET COUNT” value [2] was 1076.5 x10E3/uL. For the same compound, the “ALANINE AMINOTRANSFERASE” value [2] was 44.67 u/L, the ALBUMIN [2] was 4.23 G/DL and the “ALKALINE PHOSPHATASE” value [2] was 357.33 u/L. The “ASPARTATE AMINOTRANSFERASE” value [2] was 84.83 u/L, the “BLOOD UREA NITROGEN” value [2] was 15.5 mg/dL and the “CARBON DIOXIDE” value [2] was 27 mmol/L. For the same compound, the CHLORIDE [2] was 99.5 MEQ/L, the CHOLESTEROL [2] was 63.67 mg/dL and the “CREATINE PHOSPHOKINASE” value [2] was 331.33 u/L. The CREATININE [2] was 0.18 mg/dL, the GLUCOSE [2] was 167.33 mg/dL and the “LACTATE DEHYDROGENASE” value [2] was 320.17 u/L. It also gave an LIPASE [2] of 9.17 u/L, a PHOSPHORUS [2] of 12.05 mg/dL and a POTASSIUM [2] of 6.54 MEQ/L. For the same compound, the SODIUM [2] was 143.02 MEQ/L, the “TOTAL BILIRUBIN” value [2] was 0.2 mg/dL and the “TOTAL PROTEIN” value [2] was 6.23 G/DL. The “URIC ACID” value [2] was 2.07 mg/dL, the “ABSOLUTE BASOPHIL” value [3] was 0 CELLS/uL and the “ABSOLUTE EOSINOPHIL” value [3] was 0 CELLS/uL. The “ABSOLUTE LYMPHOCYTE” value [3] was 12492.33 CELLS/uL, the “ABSOLUTE MONOCYTE” value [3] was 142.67 CELLS/uL and the “ABSOLUTE SEGMENTED NEUTROPHIL” value [3] was 1631.67 CELLS/uL. For the same compound, the BASOPHIL [3] was 0%, the EOSINOPHIL [3] was 0% and the “ERYTHROCYTE COUNT” value [3] was 5.71 x10E6/uL. The HEMATOCRIT [3] was 37.53%, the HEMOGLOBIN [3] was 14.67 G/DL and the “LEUKOCYTE COUNT” value [3] was 14.27 x10E3/uL. The LYMPHOCYTE [3] was 87.67%, the “MEAN CORPUSCULAR HEMOGLOBIN” value [3] was 25.73 pg and the “MEAN CORPUSCULAR HEMOGLOBIN CONCENTRATION” value [3] was 39.1 G/DL. The “MEAN CORPUSCULAR VOLUME” value [3] was 65.8 fL, the MONOCYTE [3] was 1% and the NEUTROPHIL [3] was 11.33%. For the same compound, the “NUCLEATED RED BLOOD CELLS” value [3] was 0 /100WBC, the “PLATELET COUNT” value [3] was 1015.67 x10E3/uL and the “ALANINE AMINOTRANSFERASE” value [3] was 70.67 u/L. The ALBUMIN [3] was 4.47 G/DL, the “ALKALINE PHOSPHATASE” value [3] was 482 u/L and the “ASPARTATE AMINOTRANSFERASE” value [3] was 112.67 u/L. The “BLOOD UREA NITROGEN” value [3] was 16.67 mg/dL, the “CARBON DIOXIDE” value [3] was 27.33 mmol/L and the CHLORIDE [3] was 102.33 MEQ/L. For the same compound, the CHOLESTEROL [3] was 82.67 mg/dL, the “CREATINE PHOSPHOKINASE” value [3] was 554 u/L and the CREATININE [3] was 0.22 mg/dL. The GLUCOSE [3] was 148 mg/dL, the “LACTATE DEHYDROGENASE” value [3] was 194.33 u/L and the LIPASE [3] was 10 u/L. For the same compound, the PHOSPHORUS [3] was 11.97 mg/dL, the POTASSIUM [3] was 7.02 MEQ/L and the SODIUM [3] was 145.3 MEQ/L. For the same compound, the “TOTAL BILIRUBIN” value [3] was 0.23 mg/dL, the “TOTAL PROTEIN” value [3] was 5.97 G/DL and the “URIC ACID” value [3] was 1.67 mg/dL.
